One block for each compound: values may come before it.
Key:
[1] = Photocleavage by irradiation with a mercury lamp, followed by LCMS; format: physicochemical; conditions: methanol and water, approximately 250 nm
Experimental: For illustrative purpose, initial testing of 3-(hydroxymethyl)naphthalen-2-ol derivative was carried out. The molecule was dissolved in a mixture of methanol and water, and was then irradiated for 90 min with light from a mercury lamp, which emits light with a wavelength of approximately 250 nm. […] After a further 90 min, there was approximately 20% starting material remaining.
In the experiments illustrated in FIG. 2, the molecule was dissolved in a mixture of methanol and water, and was then irradiated for 90 min with light from a mercury lamp, which emits light with a wavelength of approximately 250 nm. […] After a further 90 min, there was approximately 20% starting material remaining. […] The peak at 5 mins may be due to the diol being released.

DNA polymerase [2] = assay: Primer extension reaction analysed by PAGE gel; conditions: incubated at 40° C.; compared with the positive control reaction
Experimental: Competitor oligos, complementary to the templates were also designed to aid gel analysis of a single stranded product. Primer extension reactions were conducted using the following reaction mix:
Following incubated at 40° C. in a hot block reactions were terminated by the addition of a ‘stop buffer’ containing chelators to inhibit polymerase activity in addition to formamide and competitor oligo to encourage denaturation of the double stranded DNA duplex for electrophoresis.

DNA polymerase [3] = assay: Real-time primer extension analysis (Rotorgene Q, SYBR Safe) with melt analysis; format: biochemical; conditions: single SC-TTP incorporation, compared with standard dNTPs; FIG. 3A
Description: As specified the linker chain can play an important role, at least in some embodiments, in enabling the nucleotide to remain a polymerase substrate, as such any modified nucleotides have to be shown to be biologically active. In order to exemplify this and as an example of certain embodiments, a polymerase reaction mix may be used for real-time primer extension analysis with Rotor Template, which requires the incorporation of a single SC-TTP nucleotide followed by a sequence of 44 dCTP, dGTP, dATP nucleotides.
Primer extension reactions were monitored using the Rotorgene Q Real-time thermocycler, this allows primer extension to be monitored fluorescently using a dsDNA intercalator (SYBR Safe) with secondary melt analysis to provide further information on product composition. This method can be used with an oligonucleotide primer/template pair designed to allow complete extension of the primer with the incorporation of a single SC-TTP nucleotide. Initially, the experiment was be conducted with a 40° C. incubation and then repeated with a 65° C. incubation (optimum synthesis temperature for most commercial DNA Polymerases). Control reactions with standard dNTPs (positive control) and no dNTPs (negative control) were included, alongside a control(s) for mis-incorporation.

DNA polymerase [4] = conditions: single base incorporation; overnight, ambient temperature; FIG. 4
Experimental: Sequencing reactions performed on bulk Si/SiO2 surfaces using both 3′ and 5′ surface tethered 30mer DNA, immobilised onto APDMES/PDC modified Si/SiO2 surface in the typical 4×4 array format. Here, Cy3 labelled dCTP was selectively incorporated to a hybridised primer using the covalently bound 30mer probe as a template. The reaction mix was spread over the silicon surface and incubated overnight in a dark humid chamber at ambient temperature. The silicon was then rinsed in 1× Thermopol buffer and dried using a nitrogen line. Fluorescence was visualised using an Olympus BX60 and imaged using Axio vision camera and Axiovision 3.1 software.
It should be noted that each spot would contain a number of DNA strands where the primer extension has taken place and therefore the florescence observed is due to several Cy3 dCTP's not just one base.

- starting material remaining (LCMS) ([1]; after a further 90 min irradiation): approximately 20%
- consumption of the starting material (LCMS) ([1]; irradiated for 90 min): 50%
Structure (SMILES): COC(COCc1ccccc1)NC(=O)OCc1cc2ccccc2cc1O (centres unmarked) [(3-Hydroxynaphthalen-2-yl)methyl (2-(benzyloxy)-1-methoxyethyl)carbamate]

Structure (SMILES): [N-]=[N+]=NC(COc1cccc(C(=O)NCCNC(=O)c2cc(C(=O)O)cc(C(=O)O)c2)c1)OCCOCC(=O)NCC#Cc1cn([C@H]2C[C@H](O)[C@@H](COP(=O)(O)OP(=O)(O)OP(=O)(O)O)O2)c(=O)[nH]c1=O (some centres unmarked) [SC-TTP, Penta-Triethylammonium Cleavable SCTTP]
- band shift on gel after primer extension (DNA polymerase [2]): larger shift
- maximum fluorescence intensity associated with incorporation (primer extension) (DNA polymerase [3]): slightly reduced

Structure (SMILES): CCN1/C(=C/C=C/C2=[N+](CCCCCC(=O)NCC#Cc3cn(C4CC(O)C(COP(=O)([O-])OP(=O)([O-])OP(=O)([O-])[O-])O4)c(=O)nc3N)c3cc(S(=O)(=O)O)ccc3C2(C)C)C(C)(C)c2ccc(S(=O)(=O)[O-])cc21.[Li+].[Li+].[Li+].[Li+] (centres unmarked) [Cy3 labelled dCTP]
- fluorescence of printed array post-sequencing and wash steps (DNA polymerase [4]): very weak fluorescence

Reference: patent US11180523B2, “Design, synthesis and use of synthetic nucleotides comprising charge mass tags” (QuantuMDx Group Limited, priority 2016, dated 2021)
